Reference: PMC6980355 (Journal of medicinal chemistry, 2019)
In brackets after ≈: the same amount, converted by molar mass.

Legend:
E. coli (ΔtolC) = assay type: cell-based; conditions: for MIC E. coli (ΔtolC): knockout of efflux pump component TolC; for MIC E. coli (ΔtolC) +PMBN: PMBN 8 μg/mL
[1] = test system: P. aeruginosa (ΔmexAB, etc.); assay type: cell-based; conditions: knockouts of MexAB-OprM, MexCD-OprJ, MexEF-OprN
[2] = test system: P. aeruginosa mexT mutants; assay type: cell-based; conditions: for potency reduction by any mexT mutation: any of the three individual mexT mutations
pKa = assay type: physicochemical
E. coli (ATCC 25922) = experiment: Bacterial Cytological Profiling; assay type: cell-based; conditions: ~3-fold the MIC for 2 hours (for 1); fluorescence microscopy
P. aeruginosa BC = P. aeruginosa BC (Pseudomonas aeruginosa, UniProt P37798); experiment: P. aeruginosa BC enzyme assay; conditions: relative to parent 4a
Sequence of P. aeruginosa BC (P37798 whole entry): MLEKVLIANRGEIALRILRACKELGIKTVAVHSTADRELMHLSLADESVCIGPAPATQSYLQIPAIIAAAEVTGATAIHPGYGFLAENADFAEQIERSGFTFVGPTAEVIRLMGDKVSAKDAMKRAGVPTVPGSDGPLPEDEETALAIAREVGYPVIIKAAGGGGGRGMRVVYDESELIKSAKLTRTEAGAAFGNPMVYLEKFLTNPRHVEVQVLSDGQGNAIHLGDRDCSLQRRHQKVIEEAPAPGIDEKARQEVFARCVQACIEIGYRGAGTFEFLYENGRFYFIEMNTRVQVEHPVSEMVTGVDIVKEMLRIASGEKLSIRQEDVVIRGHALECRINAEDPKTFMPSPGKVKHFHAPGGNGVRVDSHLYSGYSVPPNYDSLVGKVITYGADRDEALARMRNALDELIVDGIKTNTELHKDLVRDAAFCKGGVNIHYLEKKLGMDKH

Structure (SMILES)	MIC E. coli (ΔtolC) (E. coli (ΔtolC)) [µg/mL]	MIC P. aeruginosa (ΔmexAB, etc.) [1] [µg/mL]	MIC E. coli (ΔtolC) +PMBN (E. coli (ΔtolC)) [µg/mL]	further results
NCC1CCN(c2nc3nc(N)ncc3cc2-c2c(Cl)cccc2Cl)CC1 [13g, 7-[4-(aminomethyl)-1-piperidyl]-6-(2,6-dichlorophenyl)pyrido[2,3-d]pyrimidin-2-amine]	1 (≈ 2.48 µM)	64 (≈ 159 µM)	–	–
Nc1ncc2cc(-c3c(Br)cccc3Br)c(N)nc2n1 [compound 1, reference compound]	0.5 (≈ 1.27 µM)	16 (≈ 40.5 µM)	0.12 (≈ 0.304 µM)	potency reduction by any mexT mutation [2]: > 8 fold; pKa (pKa): 4.8
CC(C)COc1cccc(Cl)c1-c1cc2cnc(N)nc2nc1N1C[C@@H]2[C@@H](N)[C@@H]2C1 [14e, 7-[(1R,5S)-6-amino-3-azabicyclo[3.1.0]hexan-3-yl)-6-(2-chloro-6-isobutoxy-phenyl)pyrido[2,3-d]pyrimidin-2-amine]	0.03 (≈ 0.0706 µM)	–	0.015 (≈ 0.0353 µM)	cytological profile (E. coli (ATCC 25922)): cytological profiles very similar to each other and to parent compound 1; potency reduction by any mexT mutation [2]: unaffected
Nc1ncc2cc(-c3ccccc3-c3ccccc3)c(N)nc2n1 [4b, 6-([1,1'-biphenyl]-2-yl)pyrido[2,3-d]pyrimidine-2,7-diamine]	0.5 (≈ 1.6 µM)	–	0.25 (≈ 0.798 µM)	–
Nc1ncc2cc(-c3c(Cl)cccc3Cl)c(N)nc2n1 [4a]	0.5 (≈ 1.63 µM)	16 (≈ 52.3 µM)	0.25 (≈ 0.817 µM)	–
NCC1(F)CCN(c2nc3nc(N)ncc3cc2-c2c(Cl)cccc2Cl)C1 (stereo not drawn) [13d, 7-[3-(aminomethyl)-3-fluoro-pyrrolidin-1-yl]-6-(2,6-dichlorophenyl)pyrido[2,3-d]pyrimidin-2-amine]	–	–	1 (≈ 2.46 µM)	–
NCC1(O)CCN(c2nc3nc(N)ncc3cc2-c2c(Cl)cccc2Cl)C1 (stereo not drawn) [13e, 1-[2-amino-6-(2,6-dichlorophenyl)pyrido[2,3-d]pyrimidin-7-yl]-3-(aminomethyl)pyrrolidin-3-ol]	1 (≈ 2.47 µM)	>64	–	–
Nc1ncc2cc(-c3c(Cl)cccc3-c3cccnc3)c(N3C[C@@H]4[C@@H](N)[C@@H]4C3)nc2n1 [14a, 7-[(1R,5S)-6-amino-3-azabicyclo[3.1.0]hexan-3-yl)-6-[2-chloro-6-(3-pyridyl)phenyl]pyrido[2,3-d]pyrimidin-2-amine]	0.03 (≈ 0.0698 µM)	–	–	potency reduction by any mexT mutation [2]: unaffected
CC(C)COc1cccc(Cl)c1-c1cc2cnc(N)nc2nc1N [4f, 6-(2-chloro-6-isobutoxy-phenyl)pyrido[2,3-d]pyrimidine-2,7-diamine]	0.25 (≈ 0.727 µM)	–	–	–
Nc1ncc2cc(-c3c(Cl)cccc3-c3ccncc3)c(N3C[C@@H]4[C@@H](N)[C@@H]4C3)nc2n1 [14b, 7-[(1R,5S)-6-amino-3-azabicyclo[3.1.0]hexan-3-yl)-6-[2-chloro-6-(4-pyridyl)phenyl]pyrido[2,3-d]pyrimidin-2-amine]	0.03 (≈ 0.0698 µM)	2 (≈ 4.65 µM)	0.015 (≈ 0.0349 µM)	–
Cc1ncc(-c2cccc(Cl)c2-c2cc3cnc(N)nc3nc2N2C[C@@H]3[C@@H](N)[C@@H]3C2)s1 [14d, 7-[(1R,5S)-6-amino-3-azabicyclo[3.1.0]hexan-3-yl)-6-[2-chloro-6-(2-methylthiazol-5-yl)phenyl]pyrido[2,3-d]pyrimidin-2-amine]	0.008 (≈ 0.0178 µM)	1 (≈ 2.22 µM)	–	–
O=C(O)c1cn(C2CC2)c2cc(N3CCNCC3)c(F)cc2c1=O [ciprofloxacin, reference compound]	–	–	–	resistance of mexT mutants to the antibiotic ([2]; data not shown): elevated resistance
Nc1ncc2cc(-c3c(Cl)cccc3Cl)c(N3CCC(N)(CO)C3)nc2n1 (stereo not drawn) [13c, [3-amino-1-[2-amino-6-(2,6-dichlorophenyl)pyrido[2,3-d]pyrimidin-7-yl]pyrrolidin-3-yl]methanol]	1 (≈ 2.47 µM)	–	–	–
Nc1ncc2cc(-c3ccccc3-c3cccnc3)c(N)nc2n1 [4c, 6-[2-(3-pyridyl)phenyl]pyrido[2,3-d]pyrimidine-2,7-diamine]	2 (≈ 6.36 µM)	16 (≈ 50.9 µM)	0.5 (≈ 1.59 µM)	–
NCC1CCN(c2nc3nc(N)ncc3cc2-c2c(Cl)cccc2Cl)C1 (stereo not drawn) [13f, 7-[3-(aminomethyl)pyrrolidin-1-yl]-6-(2,6-dichlorophenyl)pyrido[2,3-d]pyrimidin-2-amine]	–	–	–	cytological profile (E. coli (ATCC 25922)): cytological profiles very similar to each other and to parent compound 1; improvement in BC inhibition (IC50) compared to 4a (P. aeruginosa BC): 5 fold
Nc1ncc2cc(-c3c(Cl)cccc3-c3cccnc3)c(N)nc2n1 [4d, 6-[2-chloro-6-(3-pyridyl)phenyl]pyrido[2,3-d]pyrimidine-2,7-diamine]	–	4 (≈ 11.5 µM)	–	–
Nc1ncc2cc(-c3c(Cl)cccc3Cl)c(N3C[C@@H]4[C@@H](N)[C@@H]4C3)nc2n1 [13h, 7-((1R,5S,6s)-6-amino-3-azabicyclo[3.1.0]hexan-3-yl)-6-(2,6-dichlorophenyl)pyrido[2,3-d]pyrimidin-2-amine]	–	–	–	improvement in BC inhibition (IC50) compared to 4a (P. aeruginosa BC): ~10 fold
COc1ncc(-c2cccc(Cl)c2-c2cc3cnc(N)nc3nc2N2C[C@@H]3[C@@H](N)[C@@H]3C2)cc1F [14c, 7-[(1R,5S)-6-amino-3-azabicyclo[3.1.0]hexan-3-yl)-6-[2-chloro-6-(5-fluoro-6-methoxy-3-pyridyl)phenyl]pyrido[2,3-d]pyrimidin-2-amine]	0.015 (≈ 0.0314 µM)	2 (≈ 4.18 µM)	0.008 (≈ 0.0167 µM)	–
